Values after ≈ are worked out from the molar mass of the structure shown. Read-outs that look alike come from different tables or passages of the source.
Legend:
Pc-Mb(II) [1] = test system: Pc-Mb(II); parameters: method as in PMID 2303446; details: pH 7.0, 20.0 °C, cited from earlier work
Mt-Nb(II) [2] = target: T1, Mt-Nb(II) (Mycobacterium tuberculosis, UniProt P9WFG7); assay: CO binding to and dissociation from Mt-Nb(II) by rapid-mixing stopped-flow (incl. CO displacement by NO); parameters: made in house
Mt-Nb(II) [3] = target: T1, Mt-Nb(II); assay: CO rebinding to Mt-Nb(II) after nanosecond laser flash photolysis
From the text: CO rebinding kinetics to Mt-Nb(II) and Hs-Nb(II) at pH 7.4 (5.0 × 10^−2 M phosphate buffer) was obtained using the second harmonic (532 nm) of a Q-switched Nd:YAG laser (Surelite I-10, Continuum, Santa Clara, CA, USA) and the cw output of a 150 W Xe arc lamp was used as probe beam to monitor absorbance changes at 436 nm.
The CO adducts were obtained by equilibrating solutions in either 0.2 CO atm or 1.0 CO atm. The oxidation state, the molar fraction of ferrous carbonylated Nbs, and the Nb concentration were determined spectrophotometrically. Kinetics were analyzed according to Scheme 3.
According to Scheme 3, there are two types of processes, namely the formation of the A state directly from state B, which is much faster and independent on the ligand concentration (geminate recombination), whose extent φgem depends on the relative rates kBA(L) and kBC(L) according to the following relationship (3) φgem= kBA(L)/(kBA(L)+kBC(L)) and the observed rate rgem corresponds to (4) rgem= kBA(L)+ kBC(L) the formation of state A from state C (through the transient formation of state B), which depends on the ligand concentration (bimolecular recombination) and it is characterized by the second-order rate rbim corresponding to (5) rbim= kCB(L) × φgem

Rp-NP4(II) = target: Rp-NP4(II); parameters: method as in PMID 22594621; details: pH 7.5, 20.0 °C, cited from earlier work
Hs-Nb(II) [4] = target: T2, Hs-Nb(II) (Homo sapiens, UniProt Q8WY91); assay: CO binding to and dissociation from Hs-Nb(II) by rapid-mixing stopped-flow (incl. CO displacement by NO); details: for kobs(CO): λ = 421 nm
T2 construct: Homo sapiens Nb (Hs-Nb) is the C-terminal domain of the THAP4 protein; made in house
T2 sequence (Q8WY91 415-577 limits assumed): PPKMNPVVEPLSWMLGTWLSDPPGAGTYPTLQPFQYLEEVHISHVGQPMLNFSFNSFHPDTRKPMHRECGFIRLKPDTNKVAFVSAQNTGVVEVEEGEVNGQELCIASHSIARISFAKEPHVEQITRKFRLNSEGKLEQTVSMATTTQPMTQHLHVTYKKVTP
Procedure: Progress kinetic curves at selected wavelengths were analyzed according to Equation (1): (1) ODobs=OD0±∑i=1i−nΔODie^(−kit) where ODobs is the observed optical density at a selected wavelength and at a given time interval, OD0 is the optical density at t = 0, n is the number of exponentials, ΔODi is the optical density change associated to the exponential i, ki is the pseudo-first-order rate constant of the exponential i (i.e., kobs(CO)) and t is the time. Since data collection occurs on a logarithmic scale, experimental points in the first second represent the absolute majority (about 70 out of 100 points) of total collected ones.
Values of the second-order rate constant for Mt-Nb(II)-CO and Hs-Nb(II)-CO formation (i.e., kon(CO)) and of the first-order rate constant for CO dissociation from Mt-Nb(II)-CO and Hs-Nb(II)-CO (i.e., koff(CO)) were obtained from the dependence of the pseudo-first-order rate constant for Mt-Nb(II) and Hs-Nb(II) carbonylation (i.e., kobs(CO)) on the ligand concentration (i.e., [CO]) according to Equation (2):kobs(CO) = kon(CO) × [CO] + koff(CO)(2)
The values of the first-order rate constant for CO dissociation from Mt-Nb(II)-CO and Hs-Nb(II)-CO (i.e., for CO replacement by NO; koff(CO)) were also determined by mixing the Mt-Nb(II)-CO and Hs-Nb(II)-CO (final concentration, 2.0 × 10^−6 M to 5.0 × 10^−6 M; [CO] = 1.0 × 10^−4 M) solutions with the NO saturated solution (final concentration, […]), under anaerobic conditions (i.e., in the presence of 2.0 × 10^−3 M sodium dithionite), at pH 7.0 (1.0 × 10^−1 M phosphate buffer), and 25.0 °C; no gaseous phase was present. Kinetics of CO dissociation from Mt-Nb(II)-CO and Hs-Nb(II)-CO was recorded at 421 nm.
The conversion of Mt-Nb(II)-CO and Hs-Nb(II)-CO to Mt-Nb(II)-NO and Hs-Nb(II)-NO, respectively, was analyzed in the framework of Scheme 2 [75]:
The values of koff(CO) were determined from data analysis, according to Equation (1). The over 100-fold excess of NO over CO guarantees that the reaction proceeds rightward because kon(NO) × [NO] >> kon(CO) × [CO] [75].
Rapid-mixing experiments were carried out employing an SX18.MV stopped-flow apparatus (Applied Photophysics, Salisbury, UK), equipped with a diode array for spectra acquisition over a 1 ms time range (the light path of the observation chamber was 10 mm) and an SFM-20/MOS-200 rapid-mixing stopped-flow apparatus (BioLogic Science Instruments, Claix, France) (the light path of the observation chamber was 10 mm).

At-Nb(II) [5] = target: T3, At-Nb(II) (Arabidopsis thaliana, UniProt O64527); parameters: method as in PMID 19938152; details: pH 7.0, 20.0 °C, cited from earlier work
T3 construct: made in house

Ec-Mb(II) [6] = assay: CO binding kinetics to Ec-Mb(II) (literature); parameters: species or system Equus caballus
Pc-Mb(II) [7] = assay: CO binding kinetics to Pc-Mb(II) (literature); parameters: species or system Physeter catodon
[8] = cited from earlier work
Ec-Mb(II) [9] = details: cited from earlier work
Hs-Nb(II) [10] = target: T2, Hs-Nb(II); assay: CO rebinding to Hs-Nb(II) after nanosecond laser flash photolysis; type: binding
Procedure: Kinetics were analyzed according to Scheme 3.

Rp-NP7(II) = target: Rp-NP7(II); parameters: method as in PMID 22594621; details: pH 7.5, 20.0 °C, cited from earlier work
Mt-Nb(II) [11] = target: T1, Mt-Nb(II); assay: O2 dissociation from Mt-Nb(II)-O2 by oxygen pulse experiments; type: binding; parameters: made in house; details: Mt-Nb(II)-O2, pH 7.0, 25.0 °C
Procedure: (§1) Kinetics of O2 dissociation from the transient Mt-Nb(II)-O2, At-Nb(II)-O2 and Hs-Nb(II)-O2 species were investigated spectrophotometrically at pH 7.0 (1.0 × 10^−1 M phosphate buffer) and 25.0 °C by oxygen pulse experiments. This type of reaction proceeds according to Scheme 6.
(§2) The deoxygenation of Mt-Nb(II)-O2 and Hs-Nb(II)-O2 process was followed at 431 nm. Kinetics of Mt-Nb(II)-O2 and Hs-Nb(II)-O2 deoxygenation were analyzed according to Equation (1).
(§3) Rapid-mixing experiments were carried out employing an SX18.MV stopped-flow apparatus (Applied Photophysics, Salisbury, UK) equipped with a diode array for spectra acquisition over a 1 ms time range; the light path of the observation chamber was 10 mm.

Pc-Mb(II) [12] = test system: Pc-Mb(II); parameters: method as in PMID 5800433; details: pH 7.0, 20.0 °C, temperature-jump method; cited from earlier work
Hs-Nb(II) [13] = target: T2, Hs-Nb(II); assay: O2 dissociation from Hs-Nb(II)-O2 by oxygen pulse experiments; type: binding; details: Hs-Nb(II)-O2, pH 7.0, 25.0 °C
Procedure: as §1, §2, §3

At-Nb(II) [14] = target: T3, At-Nb(II); assay: O2 dissociation from At-Nb(II)-O2 by oxygen pulse experiments; type: binding; details: At-Nb(II)-O2, pH 7.0, 25.0 °C
Procedure: as §1, §2, §3

[15] = faster phase, Eyring plots 10.0-40.0 °C
[16] = slower phase, Eyring plots 10.0-40.0 °C

T1 sequence (P9WFG7 whole entry): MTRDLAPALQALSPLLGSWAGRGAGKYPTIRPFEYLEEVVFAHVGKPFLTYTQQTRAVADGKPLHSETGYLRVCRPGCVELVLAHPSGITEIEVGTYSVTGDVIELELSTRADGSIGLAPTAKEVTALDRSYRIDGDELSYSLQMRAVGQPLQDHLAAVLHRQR
T3 sequence (O64527 whole entry): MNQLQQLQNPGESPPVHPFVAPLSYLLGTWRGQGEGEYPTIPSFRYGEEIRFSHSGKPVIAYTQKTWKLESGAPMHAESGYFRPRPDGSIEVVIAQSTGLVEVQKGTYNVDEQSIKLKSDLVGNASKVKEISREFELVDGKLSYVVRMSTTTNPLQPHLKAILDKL

Structure (SMILES): [C-]#[O+] [CO]
- kon(CO) (Pc-Mb(II) [1]; rapid-mixing and laser photolysis): 510000 M⁻¹ s⁻¹
- Kd (Pc-Mb(II) [1]; read-out: K (=koff/kon) for CO): 37 nM
- koff(CO) (Pc-Mb(II) [1]): 0.019 s⁻¹
- Kd (Mt-Nb(II) [2]; Mt-Nb(II), pH 7.0, 25.0 °C, read-out: K (=koff/kon) for CO): 63000 nM
- kon(CO) (Mt-Nb(II) [2]; Mt-Nb(II), rapid-mixing, pH 7.0, 25.0 °C): 55000 M⁻¹ s⁻¹
- koff(CO) (Mt-Nb(II) [2]; Mt-Nb(II)-CO, pH 7.0, 25.0 °C): 3.5 ± 0.5 s⁻¹
- activation free energy ΔG^‡ of CO binding (Mt-Nb(II) [2]; Mt-Nb, from CO binding rate constant): 45.0 kJ/mol
- ΔH1^‡ bimolecular CO binding (Mt-Nb(II) [3]; [15]): 32 ± 2 kJ/mol
- ΔG1^‡ bimolecular CO binding (Mt-Nb(II) [3]; faster phase, at 20.0 °C): 42 ± 3 kJ/mol
- φgem (CO geminate rebinding) (Mt-Nb(II) [3]; laser photolysis): ≤ 0.05
- ΔH2^‡ bimolecular CO binding (Mt-Nb(II) [3]; [16]): 36 ± 4 kJ/mol
- ΔG2^‡ bimolecular CO binding (Mt-Nb(II) [3]; slower phase, at 20.0 °C): 44 ± 4 kJ/mol
- Kd (Rp-NP4(II); read-out: K (=koff/kon) for CO, first value (77% phase)): 0.22 nM
- Kd (Rp-NP4(II); read-out: K (=koff/kon) for CO, second value (23% phase)): 0.22 nM
- koff(CO), 23% phase (Rp-NP4(II)): 0.0041 s⁻¹
- koff(CO), 77% phase (Rp-NP4(II)): 0.0097 s⁻¹
- kon(CO), 23% phase (Rp-NP4(II)): 1.9e+07 M⁻¹ s⁻¹
- kon(CO), 77% phase (Rp-NP4(II)): 4.5e+07 M⁻¹ s⁻¹
- kobs(CO) (Hs-Nb(II) [4]; Hs-Nb(II), [CO] = 2.1 × 10^−4 M, pH 7.0, 25.0 °C): (2.4 ± 0.3) × 10^1 s^−1
- kobs(CO) (Hs-Nb(II) [4]; Hs-Nb(II), [CO] = 4.5 × 10^−5 M, pH 7.0, 25.0 °C): 8.3 ± 0.9 s⁻¹
- kobs(CO) (Hs-Nb(II) [4]; Hs-Nb(II), [CO] = 7.0 × 10^−5 M, pH 7.0, 25.0 °C): (1.1 ± 0.1) × 10^1 s^−1
- Kd (Hs-Nb(II) [4]; Hs-Nb(II), pH 7.0, 25.0 °C, read-out: K (=koff/kon) for CO): 38000 nM
- kon(CO) (Hs-Nb(II) [4]; Hs-Nb(II), rapid-mixing, pH 7.0, 25.0 °C): 100000 M⁻¹ s⁻¹
- koff(CO) (Hs-Nb(II) [4]; Hs-Nb(II)-CO, pH 7.0, 25.0 °C): 3.8 ± 0.5 s⁻¹
- activation free energy ΔG^‡ of CO binding (Hs-Nb(II) [4]; Hs-Nb, from CO binding rate constant): 43.7 kJ/mol
- Kd (At-Nb(II) [5]; read-out: K (=koff/kon) for CO): 220 nM
- koff(CO) (At-Nb(II) [5]): 0.05 s⁻¹
- kon(CO) (At-Nb(II) [5]): 230000 M⁻¹ s⁻¹
- activation free energy ΔG^‡ of CO binding (Ec-Mb(II) [6]): 39.2 kJ/mol
- activation free energy ΔG^‡ of CO binding (Pc-Mb(II) [7]): 39.7 kJ/mol
- solubility in the aqueous buffered solution ([8]; p = 760.0 mm Hg, 20.0 °C, phosphate buffer pH 7.0): 1030 µM (≈ 28.9 µg/mL)
- koff(CO) (Ec-Mb(II) [9]; footnote not given): 0.035 s⁻¹
- kon(CO) (Ec-Mb(II) [9]; pH 7.0, 20.0 °C): 500000 M⁻¹ s⁻¹
- kon(CO) (Ec-Mb(II) [9]; pH 7.0, 25.0 °C): 610000 M⁻¹ s⁻¹
- Kd (Ec-Mb(II) [9]; read-out: K (=koff/kon) for CO): 57 nM
- rgem (CO geminate recombination rate) (Hs-Nb(II) [10]; 25 °C): 9e+07 s⁻¹
- kBA(CO) ≈ rgem × φgem (Hs-Nb(II) [10]; Equation (3)): ≈ 4.5 × 10^6 s^−1
- kBC(CO) ≈ rgem - kBA(CO) (Hs-Nb(II) [10]; escape to solvent): ≈ 8.5 × 10^7 s^−1
- ΔH1^‡ bimolecular CO binding (Hs-Nb(II) [10]; [15]): 38 ± 4 kJ/mol
- ΔG1^‡ bimolecular CO binding (Hs-Nb(II) [10]; faster phase, at 20.0 °C): 35 ± 12 kJ/mol
- geminate CO recombination, share of total amplitude of the rebinding process (Hs-Nb(II) [10]; laser photolysis): ~ 5%
- φgem (CO geminate rebinding) (Hs-Nb(II) [10]; laser photolysis): ≤ 0.05
- ΔH2^‡ bimolecular CO binding (Hs-Nb(II) [10]; [16]): 38 ± 4 kJ/mol
- ΔG2^‡ bimolecular CO binding (Hs-Nb(II) [10]; slower phase, at 20.0 °C): 42 ± 6 kJ/mol
- Kd (Rp-NP7(II); read-out: K (=koff/kon) for CO, first value (30% phase)): 0.088 nM
- Kd (Rp-NP7(II); read-out: K (=koff/kon) for CO, second value (70% phase) (converted)): 0.015 nM
- koff(CO), 30% phase (Rp-NP7(II)): 0.0044 s⁻¹
- koff(CO), 70% phase (Rp-NP7(II)): 0.00076 s⁻¹
- kon(CO) (Rp-NP7(II)): 5e+07 M⁻¹ s⁻¹

Structure (SMILES): O=O [O2]
- koff(O2) (Mt-Nb(II) [11]): 11 s⁻¹
- koff(O2) (Pc-Mb(II) [12]): 10 s⁻¹
- koff(O2) (Hs-Nb(II) [13]): 19 s⁻¹
- koff(O2) (At-Nb(II) [14]): 6.8 s⁻¹
- solubility in the aqueous buffered solution ([8]; p = 760 mm Hg, T = 20.0 °C, phosphate buffer pH 7.0, reference not given): 1250 µM (≈ 40 µg/mL)

From PMC7915275, “Mycobacterial and Human Ferrous Nitrobindins: Spectroscopic and Reactivity Properties” (International Journal of Molecular Sciences, 2021)
